Measurements taken from ChEMBL document CHEMBL1157123, “First identification of xanthone sulfonamides as potent acyl-CoA:cholesterol acyltransferase (ACAT) inhibitors” (Bioorg Med Chem Lett, 2010).
Active and inactive are the calls of the source. The rule behind the calls is not given here.

Molecular target: T1, Sterol O-acyltransferase 1 (Homo sapiens) (UniProt P35610)
T1 sequence (whole entry): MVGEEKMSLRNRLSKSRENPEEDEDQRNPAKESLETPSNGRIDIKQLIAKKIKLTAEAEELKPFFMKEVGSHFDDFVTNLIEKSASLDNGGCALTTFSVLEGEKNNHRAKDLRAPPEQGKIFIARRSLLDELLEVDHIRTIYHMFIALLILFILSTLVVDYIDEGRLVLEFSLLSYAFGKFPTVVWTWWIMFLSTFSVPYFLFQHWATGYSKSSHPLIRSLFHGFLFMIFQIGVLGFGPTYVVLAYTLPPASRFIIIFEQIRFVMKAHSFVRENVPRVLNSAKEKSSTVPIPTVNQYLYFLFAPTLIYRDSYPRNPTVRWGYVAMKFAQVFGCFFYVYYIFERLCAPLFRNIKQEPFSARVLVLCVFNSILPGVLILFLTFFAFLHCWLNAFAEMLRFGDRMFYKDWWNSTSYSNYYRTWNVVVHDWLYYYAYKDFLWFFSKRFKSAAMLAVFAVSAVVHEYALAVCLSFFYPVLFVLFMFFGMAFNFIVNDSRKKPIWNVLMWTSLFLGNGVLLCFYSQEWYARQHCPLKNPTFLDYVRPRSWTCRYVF
Assay: Inhibition of ACAT at 10 ug/ml

inhibition	Structure (SMILES)
11.9%	COc1cc2oc3c(S(=O)(=O)NCCc4ccc(C)c(C)c4)c(OC)cc(OC)c3c(=O)c2cc1OC
43.6%	COc1cc2oc3c(S(=O)(=O)N4CCN(c5ccccn5)CC4)c(OC)cc(OC)c3c(=O)c2cc1OC
15.8%	COc1cc2oc3c(S(=O)(=O)NCc4cccc(Cl)c4)c(OC)cc(OC)c3c(=O)c2cc1OC
25%	COc1cc2oc3c(S(=O)(=O)NCc4ccc5ccccc5c4)c(OC)cc(OC)c3c(=O)c2cc1OC
inactive	CCCNS(=O)(=O)c1c(OC)cc(OC)c2c(=O)c3cc(OC)c(OC)cc3oc12
64.8%	COc1cc2oc3c(S(=O)(=O)N4CCN(c5cccc(C)c5)CC4)c(OC)cc(OC)c3c(=O)c2cc1OC
8.84%	COc1cc2oc3c(S(=O)(=O)N4C[C@@H](C)O[C@@H](C)C4)c(OC)cc(OC)c3c(=O)c2cc1OC
51.3%	COc1cc2oc3c(S(=O)(=O)N4CC=C(c5ccccc5)CC4)c(OC)cc(OC)c3c(=O)c2cc1OC
21%	COc1cc2oc3c(S(=O)(=O)N4CCC(N(C)C)C4)c(OC)cc(OC)c3c(=O)c2cc1OC (centres undefined)
14.5%	COc1cc2oc3c(S(=O)(=O)N4CCN(C)CC4)c(OC)cc(OC)c3c(=O)c2cc1OC
inactive	COc1cc2oc3c(S(=O)(=O)NC(c4ccccc4)c4ccccc4)c(OC)cc(OC)c3c(=O)c2cc1OC
12.6%	CCN(CC)C(=O)C1CCCN(S(=O)(=O)c2c(OC)cc(OC)c3c(=O)c4cc(OC)c(OC)cc4oc23)C1 (centres undefined)
16.8%	CCOC(=O)CN(C)S(=O)(=O)c1c(OC)cc(OC)c2c(=O)c3cc(OC)c(OC)cc3oc12
30.1%	COc1ccc(CCCN(C)S(=O)(=O)c2c(OC)cc(OC)c3c(=O)c4cc(OC)c(OC)cc4oc23)cc1OC
5.13%	COC(=O)CNS(=O)(=O)c1c(OC)cc(OC)c2c(=O)c3cc(OC)c(OC)cc3oc12
inactive	CNS(=O)(=O)c1c(OC)cc(OC)c2c(=O)c3cc(OC)c(OC)cc3oc12
inactive	COc1cc2oc3c(S(=O)(=O)NC4CC4)c(OC)cc(OC)c3c(=O)c2cc1OC
16.8%	COc1cc2oc3c(S(=O)(=O)NOCc4ccccc4)c(OC)cc(OC)c3c(=O)c2cc1OC
10.2%	COc1cc2oc3c(S(=O)(=O)NCc4ccc(F)cc4)c(OC)cc(OC)c3c(=O)c2cc1OC
10.5%	COc1cc2oc3c(S(=O)(=O)N4CCCCC4)c(OC)cc(OC)c3c(=O)c2cc1OC
36.9%	COc1ccc(N2CCN(S(=O)(=O)c3c(OC)cc(OC)c4c(=O)c5cc(OC)c(OC)cc5oc34)CC2)cc1
10.8%	COc1cc2oc3c(S(=O)(=O)NCC(C)c4ccccc4)c(OC)cc(OC)c3c(=O)c2cc1OC (centres undefined)
7.99%	CCOC(=O)C1CCCN(S(=O)(=O)c2c(OC)cc(OC)c3c(=O)c4cc(OC)c(OC)cc4oc23)C1 (centres undefined)

Structure (SMILES)	inhibition
CCCCCCCCCC[Si](C)(C)CCC(=O)NC(Cc1ccc(C)cc1)c1ccccc1 (centres undefined)	55%
